This is an account of results in patent US5208344A, “Naphthalenepropionic acid derivatives as anti-inflammatory/antiallergic agents” (American Home Products Corporation, priority 1991, dated 1993).

The test system of one experiment is cyclooxygenase. Nature of the experiment: inhibition of synthesis of cyclooxygenase products TxB2 and PGE2 (rat polymorphonuclear leukocytes). Type of experiment: cell-based. Particulars: 10 μM, rat PMN; for % Inhibition of CO (as PGE2): negative = potentiation of PGE2 synthesis. A digest of the protocol: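 Glycogen-elicited peritoneal PMN from female Wistar rats, 2×10^7 cells/ml in HBSS with Ca^++, Mg^++ and 10 mM L-cysteine, preincubated with compound 10 min at 37° C. Stimulated 10 min with A23187 (10 μM) plus 0.5 μM [14C] arachidonic acid; TxB2 and PGE2 quantified by TLC, autoradiography and scintillation counting.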

A further experiment relates to carrageenan paw edema. Kind of experiment: rat carrageenan paw edema assay. It is filed as in vivo. The following applies: 1 hour prior to carrageenan, rat. Here is the method:
The compounds of the invention are further tested in the rat carrageenan paw edema assay to determine their ability to inhibit the acute inflammatory response.
140-180 gm male Sprague-Dawley rats, in groups of 6 animals are injected subcutaneously in the right paw with 0.1 ml of 1% carrageenan at zero time. Mercury plethysmographic readings (ml) of the paw are made at zero time and 3 hours later. Test compounds are suspended or dissolved in 0.5% methylcellulose and given perorally 1 hour prior to carrageenan administration.
The increase in paw volume (edema in ml.) produced by the carrageenan is measured. […] Unpaired Student's t-test is used to determine statistical significance.
A general note: The carrageenan paw model is a standard test of acute inflammation.

Another experiment addresses T1, 5-lipoxygenase (Rattus norvegicus, UniProt P12527).
T1 construct: Peritoneal PMN are obtained from female Wistar rats (150-250 g); endogenous in cells; host or cells: rat glycogen-elicited peritoneal polymorphonuclear leukocytes, intact
T1 sequence (P12527 1-673): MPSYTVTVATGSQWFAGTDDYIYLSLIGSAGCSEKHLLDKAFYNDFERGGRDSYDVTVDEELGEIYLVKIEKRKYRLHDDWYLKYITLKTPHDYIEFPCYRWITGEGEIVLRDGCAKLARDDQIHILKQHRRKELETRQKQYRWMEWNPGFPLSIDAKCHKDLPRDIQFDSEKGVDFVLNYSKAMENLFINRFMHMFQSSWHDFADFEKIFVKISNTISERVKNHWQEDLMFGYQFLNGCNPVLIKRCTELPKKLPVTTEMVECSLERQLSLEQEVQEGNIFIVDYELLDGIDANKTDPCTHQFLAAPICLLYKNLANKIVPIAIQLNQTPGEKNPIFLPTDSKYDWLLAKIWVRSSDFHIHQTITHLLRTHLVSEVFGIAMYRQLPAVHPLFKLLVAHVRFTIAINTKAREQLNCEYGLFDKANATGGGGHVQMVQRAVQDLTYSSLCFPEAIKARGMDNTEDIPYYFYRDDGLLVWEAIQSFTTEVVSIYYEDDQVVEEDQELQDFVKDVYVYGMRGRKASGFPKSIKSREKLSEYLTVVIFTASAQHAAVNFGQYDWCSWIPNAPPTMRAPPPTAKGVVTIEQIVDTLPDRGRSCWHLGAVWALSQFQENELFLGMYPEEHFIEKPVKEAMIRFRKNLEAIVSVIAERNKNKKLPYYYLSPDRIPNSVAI
Nature of the experiment: inhibition of 5-HETE synthesis by rat glycogen elicited polymorphonuclear leukocytes. Type of experiment: cell-based. Particulars: 10 μM; rat PMN; negative = potentiation of 5-HETE synthesis; read-out: % Inhibition of 5-LO (as 5-HETE). A digest of the protocol: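 Peritoneal PMN from female Wistar rats given i.p. glycogen 24 h earlier were preincubated with compound for 10 min at 37° C (2×10^7 cells/ml, 10 mM L-cysteine). They were then stimulated 10 min with 10 μM A23187 plus 0.5 μM [14C]arachidonic acid. 5-HETE was separated by TLC and quantified by scintillation.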

In another experiment the target is T2, LTD4 (Cavia porcellus, UniProt Q2NNR5).
T2 construct: isolated guinea pig trachea; from tissue; host or cells: guinea pig tracheal rings
T2 sequence (Q2NNR5 1-340): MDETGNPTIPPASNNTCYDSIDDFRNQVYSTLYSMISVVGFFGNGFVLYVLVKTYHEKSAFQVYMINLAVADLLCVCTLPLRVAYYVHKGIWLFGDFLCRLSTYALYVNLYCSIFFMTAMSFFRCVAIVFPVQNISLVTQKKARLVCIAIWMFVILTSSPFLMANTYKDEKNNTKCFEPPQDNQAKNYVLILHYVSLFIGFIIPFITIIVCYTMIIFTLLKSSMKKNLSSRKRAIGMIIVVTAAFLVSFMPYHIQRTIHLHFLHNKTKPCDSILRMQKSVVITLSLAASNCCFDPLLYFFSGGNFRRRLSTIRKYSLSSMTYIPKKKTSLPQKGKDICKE
Kind of experiment: inhibition of LTD4-induced bronchospasm in guinea pigs. Particulars: 25 mg/kg intraduodenally, 10 minutes before LTD4; guinea pig. It is filed as in vivo. Here is the method: The assay of this Example measures the in vivo ability of the compounds of the invention to inhibit the bronchospasm induced in guinea pigs by the exogenously administered leukotrienes C4 and/or D4.
Male Hartley strain guinea pigs (350-600 g) are anesthetized with pentobarbital sodium (50 mg/kg, i.p.). The jugular vein is cannulated for injection of drugs and the carotid artery for monitoring blood pressure. The trachea is cannulated for artificial ventilation by a miniature Starling pump and for indirect measurement of respiratory volume changes. The animals are then pretreated with succinylcholine (2 mg/kg i.v.) and indomethacin (10 mg/kg i.v.) in trizma 8.3 buffer, 9 minutes prior to leukotriene challenge. Submaximal bronchoconstrictor responses are established in control animals by varying the dose-levels of leukotriene. Intravenous dose-levels for LTC4 range from 0.4 to 0.6 μg/kg and for LTD4 the range is from 0.3 to 0.5 μg/kg. The aerosol bronchoprovocation dose for LTC4 is generated from 1.6 μM solution and for LTD4 from a 2.0 μM solution.
Test drugs (dissolved in a solvent such as propylene glycol, polyethylene glycol 400 or saline) are administered either intraduodenally, by aerosol or intragastrically at 2 or 10 minutes before induction of bronchospasm by administration of either LTC4 or LTD4 at the predetermined dose-levels. Aerosols of soluble drugs or leukotrienes are produced in-line for 10 seconds only by actuation of an ultrasonic nebulizer (Monaghan). Aerosolized drug dosage is expressed in terms of solution concentration and by a fixed aerosol exposure time (approximately 10 seconds). Control animals receive solvent (2 ml/kg i.d. or appropriate aerosol) in place of drug.
Respiratory volume changes are determined by a calibrated piston whose travel is recorded, via a linear transducer, on a Beckman Dynograph recorder. Maximal bronchoconstrictor volume is determined by clamping off the trachea at the end of the experiment. Overflow volumes at 1,3 and 5 minutes are obtained from the recorded charts.
Area under the volume overflow curve (AUC) is estimated, using the overflow values at 1,3 and 5 minutes, and expressed as a percentage of the maximal overflow AUC (equation 1): [formula] Drug effects are reported as percent inhibition of % max AUC values obtained from appropriate control animals (equation 2): [formula]
Student's t-test for unpaired data is used to determine statistical signifiance (p<0.05). IC50 values can also be determined by inverse prediction from linear regression liens through points between 10 and 90% inhibition.

The subject of experiment [1] is acute gastroirritation induced by naproxen. Kind of experiment: cytoprotective activity against NSAID (naproxen)-induced acute gastroirritation in rats. It is filed as in vivo, rat. The following applies: drug 100 mg/kg peroral 1 hour before naproxen 25 mg/kg. The source says: The assay of Example 44 is also used to measure the cytoprotective activity of the compounds against acute gastroirritation induced by a nonsteroidal anti-inflammatory drug (NSAID).

A further experiment relates to pleural inflammation. Kind of experiment: reverse passive Arthus pleurisy assay, pleural inflammation. Type of experiment: in vivo. The following applies: rat. Here is the method: (§1) The compounds of the invention are further tested in the reverse passive Arthus pleurisy assay to evaluate their effectiveness in inflammatory mediator release and/or the fluid and cellular phases of an inflammatory response.
(§2) A reverse passive Arthus reaction is induced in the pleural cavity of male Lewis rats (150-200 g; fasted overnight prior to use) by the intravenous administration of bovine serum albumin (BSA; 4 mg/0.2 ml) followed 30 minutes later by the injection of rabbit anti-BSA (1 mg/0.2 ml; lyophilized IgG fraction; Organon Teknika, West Chester, PA) into the right pleural space under halothane anesthesia. Drugs or vehicle (0.5% Tween-80) control are administered orally in a volume of 1 ml/100 g body weight at 1 hour prior to the anti-BSA. Animals are sacrificed at either the time of peak eicosanoid production (i.e. 5 minutes after anti-BSA for immunoreactive TxB2, 10 minutes for immunoreactive LTB4, 20 minutes for immunoreactive LTC4) or at the time of peak neutrophil infiltration (4 hours after anti-BSA) by CO2 inhalation. The pleural cavity is then exposed, the fluid exudate removed by gentle vacuum aspiration and the volume of exudate is recorded. For the determination of cellular infiltration, the pleural cavity is rinsed with 3 ml of 0.1% EDTA in sterile saline, and the recovered wash is pooled with the exudate. Cell number is determined on a model ZBI Coulter counter. For determination of eicosanoid production, undiluted pleural exudate is microfuged and the supernatant is extracted with ethanol (8-10 times volume). Extracts are either stored at -20° C., or are evaporated to dryness under a stream of N2 and reconstituted in radioimmunoassay (RIA) buffer.
(§3) Inflammatory cells are expressed as 10^6 cells/ml, pleural exudate is expressed as ml of fluid, and the amount of eicosanoids in the pleural cavity is expressed as ng/ml of exudate. Mean±S.E.M. is determined for each group. Percent inhibition (% I) of cell number, exudate volume and eicosanoid production is calculated for vehicle-treated control groups, and the responses in drug-treated rats are then expressed as the mean $ I of control.

In experiment [2] the test system is inflammatory mediator release. Kind of experiment: reverse passive Arthus pleurisy assay, inflammatory mediator release. Type of experiment: in vivo, rat. Particulars: rat. Here is the method: as §1
as §2, with “Drugs or vehicle (0.5% Tween-80) control are administered orally in a volume of 1 ml/100 g body weight at 1 hour prior to the anti-BSA.” left out
Eicosanoids are quantitated by RIA according to the procedure specified by the RIA kit manufacturer (Advanced Magnetics, Cambridge, MA). Briefly, 100 μl of ^3 H-labeled eicosanoid and 100 μl of specific antibody are sequentially added to 100 μl of extracted pleural exudate in BGG-phosphate buffer which contains 0.01 M phosphate, 0.1% bovine gamma globulin and 0.1% sodium azide at pH 7.0. Antibody-bound eicosanoid is separated form unbound eicosanoid by the addition of 750 μl of dextran (0.4%)-coated charcoal (0.4% Norit A) containing 0.1% sodium azide. The mixture is centrifuged at 2000 RPM at 5° C. for 15 minutes to pellet the charcoal and adsorbed unbound eicosanoid. Antibody-bound labeled eicosanoid is quantitated by counting in a liquid scintillation counter, and is correlated to concentration by a standard curve.
as §3

`CC(C(=O)O)c1ccc2cc(OCc3ccccn3)ccc2c1` (stereo not drawn) [Example 4, α-Methyl-6-(2-pyridinylmethoxy)-2-naphthaleneacetic acid]: in the experiment with cyclooxygenase, the “% Inhibition of CO (as TxB2)” value was 12% and the “% Inhibition of CO (as PGE2)” value stood at 18%. The % Inhibition (usually the percentage by which the read-out fell short of the control) at 50 mg/kg (peroral) with carrageenan paw edema stood at 30%. The inhibition – broadly, the relative decrease from the control value, in per cent – at 10 µM on 5-lipoxygenase came out at 82%. Moreover, the “% Inhibition (LTD4-induced bronchospasm)” value on LTD4 was 52%.
The matching figures for `CC(C(=O)O)c1ccc2cc(OCc3ccccc3)ccc2c1` (stereo not drawn) [Example 2, α-Methyl-6-(phenylmethoxy)-2-naphthaleneacetic acid]: 6%, -26%, 24%, 84% and -76%.
`CCCCCCOc1ccc2cc(C(C)C(=O)O)ccc2c1` (stereo not drawn) [Example 10, α-Methyl-6-(hexyloxy)-2-naphthaleneacetic acid]: in the experiment on cyclooxygenase, the “% Inhibition of CO (as PGE2)” value is given as -5%. In addition, in experiment [1], the “% of Rats With Lesions” value amounted to 37.5% and the “Comments (protection)” value is “protection”. Moreover, the inhibition at 10 µM at 5-lipoxygenase amounted to 81%.
As to `COc1ccc2c(c1)c(CC(=O)O)c(C)n2C(=O)c1ccc(Cl)cc1` [Indomethacin], the “% Inh Cellular Influx” value in the experiment on pleural inflammation (8 mg/kg p.o.) was found to be 19%. The “ED30 Fluid Exudation” value in the experiment on pleural inflammation (p.o.) was determined as 2.5 mg/kg. The “% Inh LTB4” value in experiment [2] (4 mg/kg p.o.) is on record as 12%. The “ED50 TxB2” value in experiment [2] (p.o., 1 hour prior to anti-BSA, 5 min) is on record as 0.16 mg/kg. In addition, the “Oral ED50 (95% C.L.)” value in the experiment on carrageenan paw edema (oral, 95% C.L. in parentheses, 180 min) is recorded as 3.7 (0.6, 23.8) mg/kg.
As for `CC(C(=O)O)c1ccc2cc(OCc3ccc4ccccc4n3)ccc2c1` (stereo not drawn) [Example 1, α-Methyl-6-(2-quinolinylmethoxy)-2-naphthaleneacetic acid], in the experiment with cyclooxygenase, the “% Inhibition of CO (as TxB2)” value is given as 28% and the “% Inhibition of CO (as PGE2)” value is given as -37%. The “% Inhibition at 50 mg/kg (peroral)” value in the experiment with carrageenan paw edema was determined as 42%. In addition, the inhibition at 10 µM on 5-lipoxygenase turned out to be 100%. At LTD4, the “% Inhibition (LTD4-induced bronchospasm)” value was determined as 75%.
For the molecule `CCCCOc1ccc2cc(C(C)C(=O)O)ccc2c1` (stereo not drawn) [Example 11, α-Methyl-6-(butyloxy)-2-naphthaleneacetic acid], in the experiment with cyclooxygenase, the “% Inhibition of CO (as PGE2)” value was -3%. Besides, in experiment [1], the “% of Rats With Lesions” value turned out to be 50.0% and the “Comments (protection)” value is given as “moderate protection”. Also, at 5-lipoxygenase, the inhibition at 10 µM turned out to be 28%.
